For twelve compounds, IC50 results are on record in patent US20260070945A1, “MACROCYCLIC IMMUNOMODULATORS” (Bristol-Myers Squibb Company, priority 2022, published 2026).

The structures appear in SMILES notation. *1 amine or outer side, *2 acyl side, *3 side chain or, on linkers, in order; H or OH if unused. Where a SMILES comes first, the peptide text is derived from it. Bridges are numbered along the chain shown (N, C = ends). [ ]: non-standard residue; d: D form. The star is where a group is joined. ξ: configuration not given here. Phe(3-CF3) = N[C@@H](Cc1cccc(C(F)(F)F)c1)C(=O)O; Phe(4-COOH) = N[C@@H](Cc1ccc(C(=O)O)cc1)C(=O)O; Bip = N[C@@H](Cc1ccc(-c2ccccc2)cc1)C(=O)O; γGlu = O=C(O)[C@H](CCC(=O)[*:2])N[*:1]; Abu(3S-NH2) = C[C@H](N)[C@H](N)C(=O)O; NH(CH2)12COOH = O=C(O)CCCCCCCCCCCCN*; Val(3-OH) = CC(C)(O)[C@H](N)C(=O)O; 4Pal = N[C@@H](Cc1ccncc1)C(=O)O; X1 = O=C(CN1CCN([*:1])CC1)[*:2]; Cha = N[C@@H](CC1CCCCC1)C(=O)O; Cit = NC(=O)NCCC[C@H](N)C(=O)O; Thr(3ξ) = CC(O)[C@H](N)C(=O)O; 3Abz = Nc1cccc(C(=O)O)c1; 4Abz = Nc1ccc(C(=O)O)cc1; Carboxymethyl = O=C(O)C*; NMeA = CN[C@@H](C)C(=O)O; Orn = NCCC[C@H](N)C(=O)O; Aun = NCCCCCCCCCCC(=O)O; Dab = NCC[C@H](N)C(=O)O; Dap = NC[C@H](N)C(=O)O; AEEA = NCCOCCOCC(=O)O

T1 sequence (Q15116 25-288): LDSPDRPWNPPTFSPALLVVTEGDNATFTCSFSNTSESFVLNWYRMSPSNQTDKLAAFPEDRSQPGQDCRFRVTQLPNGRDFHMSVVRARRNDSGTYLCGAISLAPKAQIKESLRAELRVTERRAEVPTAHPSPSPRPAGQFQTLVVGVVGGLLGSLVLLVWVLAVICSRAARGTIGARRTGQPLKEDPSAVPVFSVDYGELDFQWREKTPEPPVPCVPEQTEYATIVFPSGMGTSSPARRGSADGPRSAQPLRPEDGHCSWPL

This assay concerns the target T1, PD-1/PD-L1 interaction (PE-labeled human PD-L1-Ig binding to Jurkat cell line over-expressing human PD-1) (Homo sapiens, UniProt Q15116).
T1 construct: expressed in transfected cells; host or cells: Jurkat
Put plainly: Jurkat-PD-1 Cell Binding High-Content Screening Assay (CBA). The note with it: Jurkat-hPD-1 cells, PE-labeled PD-L1-Ig 20 nM final; read-out: Jurkat HPD1 PDL1 IC50. The method, boiled down: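 Cells 8×10^3/well, DMEM + 10% FCS; cpd 2 h, 37 °C; PE–PD-L1-Ig 20 nM final, 1 h; PFA fix + Hoechst 33342, 3× dPBS wash; high-content imager.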
Broadly, the IC50 is the midpoint of a concentration-inhibition curve. For the compound `CC(C)C[C@H]1NC(=O)[C@H](C)N(C)C(=O)[C@H](CCC(N)=O)NC(=O)[C@H](Cc2ccc(-c3ccccc3)cc2)NC(=O)[C@H](Cc2ccc(C(=O)O)cc2)NC(=O)[C@H](Cc2cccc(C(F)(F)F)c2)NC(=O)[C@H](CC(=O)O)NC(=O)[C@H](Cc2ccc(OCC(=O)O)cc2)NC(=O)[C@H]([C@H](C)N)NC(=O)CSC[C@@H](C(=O)N[C@@H](CCN)C(=O)NCCOCCOCC(=O)N[C@@H](CCC(=O)NCCOCCOCC(=O)NCCCCCCCCCCCCC(=O)O)C(=O)O)NC(=O)[C@H](Cc2c[nH]cn2)NC(=O)[C@H](C(C)(C)O)NC(=O)[C@H](CC2CCCCC2)NC(=O)[C@H](CCN)NC1=O` [Example 1203] ({CH2CO}-[Abu(3S-NH2)]Y(Carboxymethyl)D[Phe(3-CF3)][Phe(4-COOH)][Bip]Q[NMeA][dL][Dab][Cha][Val(3-OH)]HC[Dab][AEEA][γGlu][AEEA]-{NH(CH2)12COOH}; thioether N-14), the IC50 was found to be 21.5 nM. To `CC(C)C[C@H]1NC(=O)[C@H](C)N(C)C(=O)[C@H](CCCNC(N)=O)NC(=O)[C@H](Cc2ccc(-c3ccccc3)cc2)NC(=O)[C@H](Cc2ccc(C(=O)O)cc2)NC(=O)[C@H](Cc2cccc(C(F)(F)F)c2)NC(=O)[C@H](CC(=O)O)NC(=O)[C@H](Cc2ccc(OCC(=O)O)cc2)NC(=O)[C@H]([C@H](C)N)NC(=O)CSC[C@@H](C(=O)N[C@@H](CCN)C(=O)NCCOCCOCC(=O)N[C@@H](CCC(=O)NCCOCCOCC(=O)NCCCCCCCCCCCCC(=O)O)C(=O)O)NC(=O)[C@H](CO)NC(=O)[C@H](C(C)(C)O)NC(=O)[C@H](CC2CCCCC2)NC(=O)[C@H](CCN)NC1=O` [Example 1205] ({CH2CO}-[Abu(3S-NH2)]Y(Carboxymethyl)D[Phe(3-CF3)][Phe(4-COOH)][Bip][Cit][NMeA][dL][Dab][Cha][Val(3-OH)]SC[Dab][AEEA][γGlu][AEEA]-{NH(CH2)12COOH}; thioether N-14) belongs 24.7 nM. `CC(=O)NCCCC[C@@H]1NC(=O)[C@H](C(C)(C)O)NC(=O)[C@H](CC2CCCCC2)NC(=O)[C@H](CCN)NC(=O)[C@@H](CC(C)C)NC(=O)[C@H](C)N(C)C(=O)[C@H](CCCNC(N)=O)NC(=O)[C@H](Cc2ccc(-c3ccccc3)cc2)NC(=O)[C@H](Cc2ccc(C(=O)O)cc2)NC(=O)[C@H](Cc2cccc(C(F)(F)F)c2)NC(=O)[C@H](CC(=O)O)NC(=O)[C@H](Cc2ccc(OCC(=O)O)cc2)NC(=O)[C@H]([C@H](C)N)NC(=O)CSC[C@@H](C(=O)N[C@@H](CCN)C(=O)NCCOCCOCC(=O)N[C@@H](CCC(=O)NCCOCCOCC(=O)NCCCCCCCCCCCCC(=O)O)C(=O)O)NC1=O` [Example 1206] ({CH2CO}-[Abu(3S-NH2)]Y(Carboxymethyl)D[Phe(3-CF3)][Phe(4-COOH)][Bip][Cit][NMeA][dL][Dab][Cha][Val(3-OH)]K(Ac)C[Dab][AEEA][γGlu][AEEA]-{NH(CH2)12COOH}; thioether N-14): the IC50 was 6.9 nM.

As to `CC(C)C[C@@H]1NC(=O)[C@H](Cc2c[nH]c3ccccc23)NC(=O)[C@H](CC(=O)O)NC(=O)[C@H](Cc2ccncc2)NC(=O)[C@H](Cc2ccc(OCC(=O)O)cc2)NC(=O)CSC[C@@H](C(=O)N[C@@H](CCN)C(=O)NCCCCCCCCCCC(=O)O)NC(=O)[C@H](CCCN)NC(=O)[C@H](C(C)C)NC(=O)[C@H](CC2CCCCC2)NC(=O)[C@H](CCN)NC(=O)[C@@H](CC(C)C)NC(=O)[C@H](C)N(C)C(=O)[C@H](C(C)C)NC(=O)[C@H](Cc2ccc(-c3ccccc3)cc2)NC1=O` [Example 1210] ({CH2CO}-Y(Carboxymethyl)[4Pal]DWL[Bip]V[NMeA][dL][Dab][Cha]V[Orn]C[Dab][Aun]-OH; thioether N-14), the IC50 was 9.4 nM. To `CC(C)C[C@@H]1NC(=O)[C@H](Cc2c[nH]c3ccccc23)NC(=O)[C@H](CC(=O)O)NC(=O)[C@H](Cc2ccncc2)NC(=O)[C@H](Cc2ccc(OCC(=O)O)cc2)NC(=O)CSC[C@@H](C(=O)Nc2ccc(C(=O)NCCCCCCCCCCC(=O)O)cc2)NC(=O)[C@H](CN)NC(=O)[C@H](C(C)C)NC(=O)[C@H](CC2CCCCC2)NC(=O)[C@H](CCN)NC(=O)[C@@H](CC(C)C)NC(=O)[C@H](C)N(C)C(=O)[C@H](C(C)C)NC(=O)[C@H](Cc2ccc(-c3ccccc3)cc2)NC1=O` [Example 1211] ({CH2CO}-Y(Carboxymethyl)[4Pal]DWL[Bip]V[NMeA][dL][Dab][Cha]V[Dap]C[4Abz][Aun]-OH; thioether N-14) belongs 368 nM; to `CC(C)C[C@@H]1NC(=O)[C@H](Cc2c[nH]c3ccccc23)NC(=O)[C@H](CC(=O)O)NC(=O)[C@H](Cc2ccncc2)NC(=O)[C@H](Cc2ccc(OCC(=O)O)cc2)NC(=O)CSC[C@@H](C(=O)Nc2ccc(C(=O)NCCCCCCCCCCC(=O)O)cc2)NC(=O)[C@H](CCN)NC(=O)[C@H](C(C)C)NC(=O)[C@H](CC2CCCCC2)NC(=O)[C@H](CCN)NC(=O)[C@@H](CC(C)C)NC(=O)[C@H](C)N(C)C(=O)[C@H](C(C)C)NC(=O)[C@H](Cc2ccc(-c3ccccc3)cc2)NC1=O` [Example 1212] ({CH2CO}-Y(Carboxymethyl)[4Pal]DWL[Bip]V[NMeA][dL][Dab][Cha]V[Dab]C[4Abz][Aun]-OH; thioether N-14), 301 nM; to `CC(C)C[C@@H]1NC(=O)[C@H](Cc2c[nH]c3ccccc23)NC(=O)[C@H](CC(=O)O)NC(=O)[C@H](Cc2ccncc2)NC(=O)[C@H](Cc2ccc(OCC(=O)O)cc2)NC(=O)CSC[C@@H](C(=O)Nc2ccc(C(=O)NCCCCCCCCCCC(=O)O)cc2)NC(=O)[C@H](CCCN)NC(=O)[C@H](C(C)C)NC(=O)[C@H](CC2CCCCC2)NC(=O)[C@H](CCN)NC(=O)[C@@H](CC(C)C)NC(=O)[C@H](C)N(C)C(=O)[C@H](C(C)C)NC(=O)[C@H](Cc2ccc(-c3ccccc3)cc2)NC1=O` [Example 1213] ({CH2CO}-Y(Carboxymethyl)[4Pal]DWL[Bip]V[NMeA][dL][Dab][Cha]V[Orn]C[4Abz][Aun]-OH; thioether N-14), 276 nM. To `CC(C)C[C@@H]1NC(=O)[C@H](Cc2c[nH]c3ccccc23)NC(=O)[C@H](CC(=O)O)NC(=O)[C@H](Cc2ccncc2)NC(=O)[C@H](Cc2ccc(OCC(=O)O)cc2)NC(=O)CSC[C@@H](C(=O)Nc2ccc(C(=O)NCCCCCCCCCCC(=O)O)cc2)NC(=O)[C@H](CCCNC(=N)N)NC(=O)[C@H](C(C)C)NC(=O)[C@H](CC2CCCCC2)NC(=O)[C@H](CCN)NC(=O)[C@@H](CC(C)C)NC(=O)[C@H](C)N(C)C(=O)[C@H](C(C)C)NC(=O)[C@H](Cc2ccc(-c3ccccc3)cc2)NC1=O` [Example 1214] ({CH2CO}-Y(Carboxymethyl)[4Pal]DWL[Bip]V[NMeA][dL][Dab][Cha]VRC[4Abz][Aun]-OH; thioether N-14) belongs 77.2 nM; to `CC(C)C[C@@H]1NC(=O)[C@H](Cc2c[nH]c3ccccc23)NC(=O)[C@H](CC(=O)O)NC(=O)[C@H](Cc2ccc(C(=O)O)cc2)NC(=O)[C@H](Cc2ccc(OCC(=O)O)cc2)NC(=O)CSC[C@@H](C(=O)N[C@@H](CCCN)C(=O)NCCOCCOCC(=O)NCCCCCCCCCCC(N)=O)NC(=O)[C@H](CCCNC(N)=O)NC(=O)[C@H](C(C)C)NC(=O)[C@H](CC2CCCCC2)NC(=O)[C@H](CCN)NC(=O)[C@@H](CC(C)C)NC(=O)[C@H](C)N(C)C(=O)[C@H](C(C)C)NC(=O)[C@H](Cc2ccc(-c3ccccc3)cc2)NC1=O` [Example 1215] ({CH2CO}-Y(Carboxymethyl)[Phe(4-COOH)]DWL[Bip]V[NMeA][dL][Dab][Cha]V[Cit]C[Orn][AEEA][Aun]-NH2; thioether N-14), 10.8 nM; to `CC(C)C[C@@H]1NC(=O)[C@H](Cc2c[nH]c3ccccc23)NC(=O)[C@H](CC(=O)O)NC(=O)[C@H](Cc2ccncc2)NC(=O)[C@H](Cc2ccc(OCC(=O)O)cc2)NC(=O)CSC[C@@H](C(=O)Nc2cccc(C(=O)NCCCCCCCCCCC(=O)O)c2)NC(=O)[C@H](CN)NC(=O)[C@H](C(C)C)NC(=O)[C@H](CC2CCCCC2)NC(=O)[C@H](CCN)NC(=O)[C@@H](CC(C)C)NC(=O)[C@H](C)N(C)C(=O)[C@H](C(C)C)NC(=O)[C@H](Cc2ccc(-c3ccccc3)cc2)NC1=O` [Example 1216] ({CH2CO}-Y(Carboxymethyl)[4Pal]DWL[Bip]V[NMeA][dL][Dab][Cha]V[Dap]C[3Abz][Aun]-OH; thioether N-14), 265 nM. `CC(C)C[C@@H]1NC(=O)[C@H](Cc2c[nH]c3ccccc23)NC(=O)[C@H](CC(=O)O)NC(=O)[C@H](Cc2ccncc2)NC(=O)[C@H](Cc2ccc(OCC(=O)O)cc2)NC(=O)CSC[C@@H](C(=O)Nc2cccc(C(=O)NCCCCCCCCCCC(=O)O)c2)NC(=O)[C@H](CCN)NC(=O)[C@H](C(C)C)NC(=O)[C@H](CC2CCCCC2)NC(=O)[C@H](CCN)NC(=O)[C@@H](CC(C)C)NC(=O)[C@H](C)N(C)C(=O)[C@H](C(C)C)NC(=O)[C@H](Cc2ccc(-c3ccccc3)cc2)NC1=O` [Example 1217] ({CH2CO}-Y(Carboxymethyl)[4Pal]DWL[Bip]V[NMeA][dL][Dab][Cha]V[Dab]C[3Abz][Aun]-OH; thioether N-14): the 50% inhibitory concentration (IC50) worked out at 238 nM. Under `CC(C)C[C@@H]1NC(=O)[C@H](Cc2c[nH]c3ccccc23)NC(=O)[C@H](CC(=O)O)NC(=O)[C@H](Cc2ccncc2)NC(=O)[C@H](Cc2ccc(OCC(=O)O)cc2)NC(=O)CSC[C@@H](C(=O)N2CCN(CC(=O)NCCCCCCCCCCC(=O)O)CC2)NC(=O)[C@H](C(C)O)NC(=O)[C@H](C(C)C)NC(=O)[C@H](CC2CCCCC2)NC(=O)[C@H](CCN)NC(=O)[C@@H](CC(C)C)NC(=O)[C@H](C)N(C)C(=O)[C@H](C(C)C)NC(=O)[C@H](Cc2ccc(-c3ccccc3)cc2)NC1=O` (stereo partly drawn) [Example 1219] ({CH2CO}-Y(Carboxymethyl)[4Pal]DWL[Bip]V[NMeA][dL][Dab][Cha]V[Thr(3ξ)]C[X1][Aun]-OH; thioether N-14) stands 202 nM.
